Assay: Biopharmaceutical Classification System class
Assay type: physicochemical
Conditions: solubility and permeability limited oral absorption

CC(C)(C)OC(=O)N[C@H]1CCCCC/C=C\[C@@H]2C[C@@]2(C(=O)NS(=O)(=O)C2CC2)NC(=O)[C@@H]2C[C@@H](OC(=O)N3Cc4cccc(F)c4C3)CN2C1=O [Compound I, 4-fluoro-1,3-dihydro-isoindole-2-carboxylic acid (Z)-(1S,4R,6S,14S, 18R)-14-tert-butoxycarbonylamino-4-cyclopropanesulfonylaminocarbonyl-2,15-dioxo-3,16-diaza-tricyclo[14.3.0.0^4,6]nonadec-7-en-18-yl ester]
Biopharmaceutical Classification System class: Class 4

From patent US20130331314A1, “PHARMACEUTICAL COMPOSITION FOR TREATING HCV INFECTIONS” (Hoffmann-La Roche Inc., priority 2010, published 2013)
